We go through 25 molecules from publication PMC10975828, “Screening for Active Compounds of Acorus calamus against SARS-CoV-2 Viral Protease and Mechanism Prediction” (Pharmaceuticals, 2024).

Where two headings read alike, the source gives them in different places.

Test [1] has as its target SARS-CoV-2 Mpro (Severe acute respiratory syndrome coronavirus 2, UniProt P0DTD1). The test is described as follows: SARS-CoV-2 Mpro inhibition assay (fluorescence, 96-well). To be noted: for percent inhibition at 5 µM: read-out: Inhibition at 5 μM (%); for IC50: Mpro 1 µM, inhibitor 0–20 µM, substrate 20 µM; for enzyme activity: at a concentration of 5 μM. In kind it is biochemical.

Test [2] has as its target SARS-CoV-2 PLpro (Severe acute respiratory syndrome coronavirus 2, UniProt P0DTD1). The test is described as follows: SARS-CoV-2 PLpro inhibition assay (fluorescence, 96-well). In kind it is biochemical. To be noted: for percent inhibition of PLpro at 5 µM: read-out: Inhibition at 5 μM (%); for enzyme activity: 5 μM screening.
Test [3] deals with PC12 cell. More on the design: method as in PMID 28695650. To be noted: previous studies; cited from earlier work.
Where [4] appears, read: PLpro 1 µM, inhibitor 0–20 µM, substrate 20 µM, read-out: IC50.
The mark [5] stands for this setting: Mpro, inhibitor 5 μM, substrate 1 μM, triplicate, 25 °C.
Where [6] appears, read: PLpro, inhibitor 5 μM, substrate 1 μM, triplicate, 25 °C.

For the molecule `CC1(O)CCC2C(C3C1CCC3(C)O)C2(C)C` (single isomer, unassigned; (-)) [Compound 5, (-)-alloaromadendrane-3β,9β-diol], the percent inhibition at 5 µM in test [1] amounted to 78.33 ± 0.25%. Besides, the percent inhibition of PLpro at 5 µM in test [2] turned out to be 14.4 ± 0.88%.
With `CC(C)C1CCC(C)(O)C2CCC(C)(O)C2C1=O` [1R,5R,7S-guaiane-4R,10R-diol-6-one], the IC50 in test [2] (setting [4]) turned out to be 386 ± 118 nM.
As for `CC(C)C1CCC(C)(O)C2CCC(C)(O)C2C1=O` [Compound 1, 1R,5R,7S-guaiane-4R,10R-diol-6-one], the percent inhibition at 5 µM in test [1] (setting [5]) was 83.61 ± 0.01%. For the same molecule, the enzyme activity entry in test [2] (PLpro) is given as “below 10%”. Moreover, the percent inhibition of PLpro at 5 µM in test [2] (setting [6]) is 6.41 ± 0.43%.
For `CC1=CCC(C(C)C)C(O)C2C1CCC2(C)O` (stereo not drawn) [Compound 2, 4β,6β-dihydroxy-1α,5β(H)-guai-9-ene], the percent inhibition at 5 µM in test [1] was 85.9 ± 0.61%. Also, in test [2], the percent inhibition of PLpro at 5 µM was determined as 14 ± 1.95%.
For `C=C1CCC(C(C)C)C(O)C2C1CCC2(C)O` (stereo not drawn) [Compound 3, 4β,6β-dihydroxy-1α,5β(H)-guai-10(14)-ene], in that order: 74.7 ± 0.05% and 11.3 ± 0.55%.
For `CC(C)C1CCC(C)(O)C2CCC(C)(O)C2C1O` (stereo not shown) [Compound 4, teuclatriol], in that order: 87.19 ± 0.31% and 11.8 ± 1.99%.
`C=C1CC[C@@H]2[C@@](O)(C1)[C@H](C(C)C)CC[C@@]2(C)O` [Compound 6, isocalamendiol]: the percent inhibition at 5 µM in test [1] (setting [5]) was 80.31 ± 0.79%. Further, the IC50 in test [2] (setting [4]) worked out at 1670 ± 496 nM. The enzyme activity entry in test [2] (PLpro) was “below 10%”. For the same molecule, the percent inhibition of PLpro at 5 µM in test [2] (setting [6]) was found to be 6.89 ± 1.65%.
For `C=C1CC[C@@H]2[C@@](O)(C1)[C@H](C(C)C)CC[C@]2(C)O` [Compound 7, calamendiol], the percent inhibition at 5 µM in test [1] (setting [5]) stood at 78.58 ± 0.67%. Further, the percent inhibition of PLpro at 5 µM in test [2] (setting [6]) is 20.1 ± 2.96%.
Take `C=C1CC[C@@H]2[C@](C)(O)[C@H](O)C[C@H](C(C)C)[C@@]2(O)C1` [Compound 9, calamentriol A]: the percent inhibition at 5 µM in test [1] was 82.9 ± 7.31%. For the same molecule, the percent inhibition of PLpro at 5 µM in test [2] came out at 22.3 ± 4.83%.
As to `CC1=CC[C@H]2[C@](O)(C1)[C@@H](C(C)C)CC[C@@]2(C)O` [Compound 10, 1β,7β(H)-3-cadinadiene-6α,10α-diol], the percent inhibition at 5 µM in test [1] is 85.6 ± 0.88%. Also, the percent inhibition of PLpro at 5 µM in test [2] was found to be 26.6 ± 3.38%.
The corresponding values for `CC(C)[C@@H]1CC[C@](C)(O)[C@@H]2CC[C@](C)(O)C[C@]21O` [Compound 11, calamentriol B] are 80.5 ± 4.82% and 38.4 ± 7.04%.
On to `CC(C)[C@H]1CC[C@](C)(O)[C@H]2CC[C@@](O)(CO)C[C@]12O` [Compound 12, calamentriol C], for which the percent inhibition at 5 µM in test [1] turned out to be 70.9 ± 1.17%. In test [2], the percent inhibition of PLpro at 5 µM came to 25.8 ± 2.25%.
In the case of `CC(C)C1CCC(C)(O)C2=C1C(=O)C(C)(O)CC2O` (stereo not shown) [Compound 13, menecubebane B], the IC50 in test [1] amounted to 1720 ± 394 nM; in test [2] (setting [4]) it was 2530 ± 885 nM. The enzyme activity result in test [1] (Mpro) is listed as “less than 50%”. Moreover, in test [1] (setting [5]), the percent inhibition at 5 µM turned out to be 41.1 ± 8.77%. In addition, in test [2] (setting [6]), the percent inhibition of PLpro at 5 µM amounted to 24.9 ± 4.91%.
Take `CC1=C[C@H]2[C@@H](C(C)C)CC[C@@](C)(O)[C@]2(O)[C@@H](O)C1` [Compound 14, calamentriol D]: the percent inhibition at 5 µM in test [1] was found to be 81.9 ± 1.31%. Moreover, in test [2], the percent inhibition of PLpro at 5 µM was determined as 25.4 ± 1.43%.
In the case of `CC(C)[C@@H]1CCC(=O)C2=C1[C@H](O)[C@](C)(O)CC2` [Compound 15, oxyphyllenodiols A], the percent inhibition at 5 µM in test [1] was determined as 79.3 ± 10.4%. In addition, in test [2], the percent inhibition of PLpro at 5 µM was 35.3 ± 2.35%.
The corresponding values for `CC(C)C1=CC[C@@]2(C)[C@H](O)CC[C@](C)(O)[C@@H]2C1` [Compound 16, oplodiol] are 78.2 ± 12.9% and 33.6 ± 2.46%.
The corresponding values for `CC(C)C1CCC2(C)C(O)CCC(C)(O)C2C1O` (stereo not shown) [Compound 17, ananosmin] are 74.6 ± 5.21% and 29.8 ± 1.54%.
On to `CC(=O)CC[C@@]12CC(=O)O[C@]1(C(C)C)C(=O)C[C@@H]2C` [Compound 18, neo-acorane A], for which the IC50 in test [1] amounted to 630 ± 364 nM; in test [2] (setting [4]), 1890 ± 375 nM. Besides, the enzyme activity result in test [1] (Mpro) is “less than 50%”. Besides, the percent inhibition at 5 µM in test [1] (setting [5]) turned out to be 31 ± 1.26%. In addition, in test [2] (setting [6]), the percent inhibition of PLpro at 5 µM was found to be 31.7 ± 8.07%.
For `CC(C)C(=O)[C@@]1([C@H](C)CC(=O)O)CC[C@@H](C)C(=O)C1` [Compound 19, acoric acid], the percent inhibition at 5 µM in test [1] (setting [5]) is 75.55 ± 0.24%. The IC50 in test [2] (setting [4]) stood at 1450 ± 429 nM. Also, in test [2] (PLpro), the enzyme activity result is “below 10%”. For the same molecule, the percent inhibition of PLpro at 5 µM in test [2] (setting [6]) was found to be 7.9 ± 1.94%.
For `CC1CC(=O)C(O)(C(C)C)C12CCC(C)(O)C(=O)C2` (stereo not shown) [Compound 20, calamusin D], in test [1], the percent inhibition at 5 µM was 79.7 ± 8.49%. For the same molecule, the percent inhibition of PLpro at 5 µM in test [2] is 22.2 ± 3.58%.
For the molecule `CC(=O)C1CCC2C1C(C(C)C)CCC2(C)O` (stereo not shown) [Compound 21, oplopanone A], the percent inhibition at 5 µM in test [1] was 83.3 ± 4.06%. Besides, the percent inhibition of PLpro at 5 µM in test [2] came out at 33.9 ± 5.49%.
As for `CC(C)(O)C[C@H]1CC[C@@]2(C)[C@H](O)CC[C@](C)(O)[C@H]12` [Compound 22, bullatantriol], in test [1] (setting [5]), the percent inhibition at 5 µM came out at 82.8 ± 1.58%. The IC50 in test [2] (setting [4]) came to 1260 ± 321 nM. The enzyme activity result in test [2] (PLpro) is listed as “below 10%”. Besides, the percent inhibition of PLpro at 5 µM in test [2] (setting [6]) was found to be 10.6 ± 2.59%.
With `COc1cc2ccnc3c2c(c1O)-c1c-3cccc(OC)c1=O` [Compound 23, neo-tatarine], the “inhibitory effect on Aβ25-35-induced PC12 cell death” value in test [3] is reported as “significant inhibitory effect”. Besides, the percent inhibition at 5 µM in test [1] (setting [5]) was determined as 81.5 ± 3.65%. In addition, in test [2] (setting [4]), the IC50 came to 743 ± 187 nM. Also, in test [2] (PLpro), the enzyme activity entry is “below 10%”. In test [2] (setting [6]), the percent inhibition of PLpro at 5 µM was determined as 6.71 ± 3.23%.
For `COc1cc(OC)c(OC)cc1C=O` [Compound 24, 2,4,5-trimethoxybenzaldehyde], the percent inhibition at 5 µM in test [1] was 68.9 ± 0.71%. Moreover, in test [2], half-maximal inhibition (IC50) required 3920 ± 1290 nM and the percent inhibition of PLpro at 5 µM stood at 9.54 ± 0.61%. For the same molecule, in test [2] (PLpro), the enzyme activity result is “below 10%”.
For the molecule calamusin H [Compound 8], the percent inhibition in test [1] (setting [5]) came out at 81.7 ± 6.15%. Further, the percent inhibition of PLpro at 5 µM in test [2] (setting [6]) was found to be 14.2 ± 0.93%.
